What was measured:
Assay in all cases: relative viability (nuclei count vs DMSO), 5 days (fraction); higher = more cells survive
AZ628 + Foretinib = compound: CC1=C(C=C(C=C1)NC(=O)C2=CC(=CC=C2)C(C)(C)C#N)NC3=CC4=C(C=C3)N=CN(C4=O)C [AZ628] + COc1cc2c(Oc3ccc(NC(=O)C4(C(=O)Nc5ccc(F)cc5)CC4)cc3F)ccnc2cc1OCCCN1CCOCC1 [Foretinib] (partner 0.25 µM)
In short: (§1)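 Five library-drug doses in √10 steps were combined with a fixed anchor-drug dose, or a single drug was given alone, by pin tool to lung cancer cell lines in 1536-well plates the day after seeding. Nuclei were stained and counted after 5 days. Relative viability is the nuclei count in treated wells over that in vehicle wells, taken as the median of duplicate plates.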

AZ628 + Luminespib = compound: CC1=C(C=C(C=C1)NC(=O)C2=CC(=CC=C2)C(C)(C)C#N)NC3=CC4=C(C=C3)N=CN(C4=O)C [AZ628] + CCNC(=O)c1noc(-c2cc(C(C)C)c(O)cc2O)c1-c1ccc(CN2CCOCC2)cc1 [Luminespib] (partner 0.01 µM)
In short: as §1

Darinaparsin + AZD7762 = compound: C[As](C)SC[C@H](NC(=O)CC[C@H](N)C(=O)O)C(=O)NCC(=O)O [Darinaparsin] + NC(=O)Nc1cc(-c2cccc(F)c2)sc1C(=O)N[C@H]1CCCNC1 [AZD7762] (partner 0.2 µM)
In short: as §1

QS11 + Foretinib = compound: C1CC2=C(C1)C=C(C=C2)OC3=NC(=C4C(=N3)N(C=N4)CC5=CC=C(C=C5)C6=CC=CC=C6)N[C@@H](CC7=CC=CC=C7)CO [QS11] + COc1cc2c(Oc3ccc(NC(=O)C4(C(=O)Nc5ccc(F)cc5)CC4)cc3F)ccnc2cc1OCCCN1CCOCC1 [Foretinib] (partner 0.25 µM)
In short: as §1

| Cell Line | relative viability (AZ628 + Foretinib; first compound 0.08 µM) | relative viability (AZ628 + Foretinib; first compound 0.253 µM) | relative viability (AZ628 + Foretinib; first compound 0.8 µM) | relative viability (AZ628 + Foretinib; first compound 2.53 µM) | relative viability (AZ628 + Foretinib; first compound 8 µM) | relative viability (AZ628 + Luminespib; first compound 0.08 µM) | relative viability (AZ628 + Luminespib; first compound 0.253 µM) | relative viability (AZ628 + Luminespib; first compound 0.8 µM) | relative viability (AZ628 + Luminespib; first compound 2.53 µM) | relative viability (AZ628 + Luminespib; first compound 8 µM) | relative viability (Darinaparsin + AZD7762; first compound 0.08 µM) | relative viability (Darinaparsin + AZD7762; first compound 0.8 µM) | relative viability (Darinaparsin + AZD7762; first compound 2.53 µM) | relative viability (Darinaparsin + AZD7762; first compound 8 µM) | relative viability (QS11 + Foretinib; first compound 0.08 µM) | relative viability (QS11 + Foretinib; first compound 0.253 µM) | relative viability (QS11 + Foretinib; first compound 0.8 µM) | relative viability (QS11 + Foretinib; first compound 2.53 µM) | relative viability (QS11 + Foretinib; first compound 8 µM) |
| --- | --- | --- | --- | --- | --- | --- | --- | --- | --- | --- | --- | --- | --- | --- | --- | --- | --- | --- | --- |
| HCC-15 | 1.08 | 0.984 | 0.871 | 0.868 | 0.467 | 0.262 | 0.304 | 0.478 | 0.361 | 0.282 | 1.48 | 1.32 | 1.11 | 1.12 | 0.999 | 1.12 | 0.764 | 1.01 | 0.899 |
| BEN | 0.694 | 0.511 | 0.544 | 0.561 | 0.571 | 0.51 | 0.251 | 0.485 | 0.938 | 0.221 | 0.691 | 0.729 | 0.648 | 0.797 | 0.47 | 0.616 | 0.814 | 0.691 | 0.701 |
| NCI-H1993 | 1.05 | 0.68 | 0.714 | 0.715 | 0.667 | 0.991 | 0.683 | 0.702 | 0.753 | 0.613 | 0.965 | 0.723 | 0.628 | 0.84 | 0.737 | 0.636 | 0.696 | 0.787 | 0.628 |
| NCI-H2405 | 0.637 | 0.857 | 0.673 | 0.757 | 0.539 | 0.366 | 0.425 | 0.411 | 0.365 | 0.355 | 1.04 | 0.666 | 0.68 | 0.817 | 1 | 0.986 | 1 | 1.08 | 1.16 |
| NCI-H2126 | 1.27 | 1.18 | 1.22 | 0.922 | 0.94 | 1 | 0.902 | 0.968 | 0.933 | 0.97 | 1.14 | 1.03 | 0.917 | 1.14 | 1.18 | 1.22 | 1.07 | 1.1 | 1.04 |
| LK-2 | 1.42 | 0.985 | 1.09 | 1.28 | 0.587 | 0.224 | 0.205 | 0.206 | 0.187 | 0.16 | 0.482 |  | 0.335 | 0.581 | 1.13 | 1.38 | 1.41 | 1.13 | 1.09 |
| NCI-H1944 | 0.943 | 0.842 | 0.69 | 0.757 | 0.604 | 0.651 | 0.66 | 0.553 | 0.546 | 0.575 | 0.469 | 0.518 | 0.527 | 0.427 | 0.886 | 0.967 |  | 0.641 | 0.671 |
| PC-14 | 0.95 | 0.916 | 0.949 | 0.945 | 0.765 | 0.197 | 0.132 | 0.146 | 0.167 | 0.202 | 0.481 | 0.361 | 0.422 | 0.379 | 1.11 | 0.95 | 0.777 | 0.889 | 1.06 |
| LC-2-ad | 1.02 | 1.06 | 0.947 | 0.978 | 0.863 | 1.1 | 1.08 | 0.458 | 1.13 | 0.926 | 1.07 | 0.859 | 0.679 | 1.02 | 0.921 | 0.924 | 0.839 | 1.04 | 0.889 |
| 201T | 1.29 | 1.01 | 1.18 | 1.16 | 1.31 | 1.07 | 1.02 | 1.14 | 1.05 | 1.14 | 0.707 | 0.669 | 0.527 | 0.658 | 1.18 | 1.08 | 0.868 | 1.04 | 0.632 |
| HOP-62 | 1.05 | 1.07 | 1.02 | 0.999 | 0.629 | 0.977 | 0.865 | 0.759 | 0.826 | 0.475 | 0.669 | 0.518 | 0.497 | 0.782 | 1.11 | 1.33 | 0.766 | 0.742 | 0.708 |
| NCI-H1734 | 0.667 | 0.759 | 0.686 | 0.753 | 0.416 | 0.224 | 0.19 | 0.153 | 0.172 | 0.142 | 0.72 | 0.529 | 0.549 | 0.664 | 0.842 | 0.932 | 0.91 | 0.772 | 0.713 |
| EKVX | 0.724 | 0.609 | 0.721 | 0.847 | 0.564 | 0.892 | 0.857 | 0.946 | 0.954 | 0.864 | 0.817 | 0.739 | 0.726 | 0.82 | 0.732 | 0.764 |  | 0.848 | 1.23 |
| NCI-H1355 | 0.976 | 0.937 | 1.03 | 1.02 | 0.871 | 0.756 | 0.716 | 0.705 | 0.667 | 0.646 | 0.933 | 0.72 | 0.568 | 0.828 | 1.01 | 0.911 | 0.775 | 0.931 | 1.05 |
| H3255 | 0.958 | 0.899 | 0.78 | 0.96 | 0.661 | 1.03 | 0.891 | 0.929 | 1 | 0.556 | 0.858 | 0.915 | 0.797 | 1.05 | 0.787 | 0.864 |  | 0.927 | 0.93 |
| NCI-H23 | 0.989 | 0.967 | 0.768 | 0.773 | 0.588 | 0.201 | 0.222 | 0.224 | 0.216 | 0.201 | 0.226 | 0.229 | 0.23 | 0.247 | 1.01 | 1.1 | 0.753 | 0.863 | 0.961 |
